In ChEMBL document CHEMBL3991601, “The target landscape of clinical kinase drugs” (Science, 2017):
Activity calls are given as the source filed them.

How the values were obtained:
[1] = target: Cyclin-dependent kinase 3 (Homo sapiens, UniProt Q00526)
[2] = target: Ribosomal protein S6 kinase beta-1 (Homo sapiens, UniProt P23443)
[3] = target: T1, RNA cytidine acetyltransferase (Homo sapiens, UniProt Q9H0A0)
T1 sequence (Q9H0A0 whole entry): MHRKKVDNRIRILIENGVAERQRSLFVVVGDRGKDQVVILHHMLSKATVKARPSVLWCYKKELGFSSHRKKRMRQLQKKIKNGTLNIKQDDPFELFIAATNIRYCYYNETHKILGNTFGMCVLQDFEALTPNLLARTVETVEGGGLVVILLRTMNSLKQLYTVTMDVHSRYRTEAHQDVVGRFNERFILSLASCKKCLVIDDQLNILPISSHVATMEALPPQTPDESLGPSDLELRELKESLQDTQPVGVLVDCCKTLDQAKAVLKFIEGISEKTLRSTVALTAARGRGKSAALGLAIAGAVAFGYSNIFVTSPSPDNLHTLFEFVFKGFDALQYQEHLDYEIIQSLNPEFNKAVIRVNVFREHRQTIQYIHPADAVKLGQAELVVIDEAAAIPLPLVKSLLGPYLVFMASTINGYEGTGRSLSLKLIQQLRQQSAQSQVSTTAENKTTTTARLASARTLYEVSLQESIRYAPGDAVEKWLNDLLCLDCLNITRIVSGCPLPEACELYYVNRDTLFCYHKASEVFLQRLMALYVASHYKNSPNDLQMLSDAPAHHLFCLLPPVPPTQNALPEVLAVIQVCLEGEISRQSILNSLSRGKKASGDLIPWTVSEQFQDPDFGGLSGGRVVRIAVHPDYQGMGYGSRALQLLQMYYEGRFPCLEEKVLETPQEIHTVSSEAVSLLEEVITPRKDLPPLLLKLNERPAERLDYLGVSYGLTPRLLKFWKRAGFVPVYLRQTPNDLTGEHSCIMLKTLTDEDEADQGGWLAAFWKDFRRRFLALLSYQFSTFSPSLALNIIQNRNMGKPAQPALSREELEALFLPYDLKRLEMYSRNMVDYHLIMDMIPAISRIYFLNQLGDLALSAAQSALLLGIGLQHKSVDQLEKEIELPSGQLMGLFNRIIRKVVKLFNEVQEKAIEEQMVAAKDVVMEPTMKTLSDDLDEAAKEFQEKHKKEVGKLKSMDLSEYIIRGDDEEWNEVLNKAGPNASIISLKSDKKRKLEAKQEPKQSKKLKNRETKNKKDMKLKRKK

[4] = target: T2, Serine/threonine-protein kinase TAO3 (Homo sapiens, UniProt Q9H2K8)
T2 sequence (Q9H2K8 whole entry): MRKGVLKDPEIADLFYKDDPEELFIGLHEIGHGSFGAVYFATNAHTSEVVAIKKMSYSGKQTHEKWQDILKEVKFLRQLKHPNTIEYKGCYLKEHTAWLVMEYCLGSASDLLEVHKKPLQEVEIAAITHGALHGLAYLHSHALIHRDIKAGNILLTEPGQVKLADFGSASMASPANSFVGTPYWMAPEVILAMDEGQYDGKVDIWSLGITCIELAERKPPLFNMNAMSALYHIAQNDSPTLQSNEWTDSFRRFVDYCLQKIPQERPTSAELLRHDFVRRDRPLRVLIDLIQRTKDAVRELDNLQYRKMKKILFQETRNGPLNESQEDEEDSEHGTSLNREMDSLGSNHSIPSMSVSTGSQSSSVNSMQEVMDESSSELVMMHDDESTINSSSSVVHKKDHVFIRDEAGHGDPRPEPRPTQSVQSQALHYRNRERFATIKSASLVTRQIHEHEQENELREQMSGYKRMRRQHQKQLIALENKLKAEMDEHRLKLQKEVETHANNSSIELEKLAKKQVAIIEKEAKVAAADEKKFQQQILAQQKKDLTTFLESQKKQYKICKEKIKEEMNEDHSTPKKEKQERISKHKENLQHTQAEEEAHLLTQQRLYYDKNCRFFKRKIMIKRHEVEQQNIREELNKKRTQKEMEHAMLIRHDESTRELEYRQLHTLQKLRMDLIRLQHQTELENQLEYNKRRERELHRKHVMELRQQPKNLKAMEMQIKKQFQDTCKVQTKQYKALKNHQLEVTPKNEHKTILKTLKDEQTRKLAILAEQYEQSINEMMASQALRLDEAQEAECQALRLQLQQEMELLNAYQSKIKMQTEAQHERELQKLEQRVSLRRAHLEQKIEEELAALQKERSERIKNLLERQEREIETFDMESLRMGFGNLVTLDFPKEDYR
Note: in the data inactive means no Kd found up to 30 µM.

Chain of Ribosomal protein S6 kinase beta-1 (P23443 whole entry): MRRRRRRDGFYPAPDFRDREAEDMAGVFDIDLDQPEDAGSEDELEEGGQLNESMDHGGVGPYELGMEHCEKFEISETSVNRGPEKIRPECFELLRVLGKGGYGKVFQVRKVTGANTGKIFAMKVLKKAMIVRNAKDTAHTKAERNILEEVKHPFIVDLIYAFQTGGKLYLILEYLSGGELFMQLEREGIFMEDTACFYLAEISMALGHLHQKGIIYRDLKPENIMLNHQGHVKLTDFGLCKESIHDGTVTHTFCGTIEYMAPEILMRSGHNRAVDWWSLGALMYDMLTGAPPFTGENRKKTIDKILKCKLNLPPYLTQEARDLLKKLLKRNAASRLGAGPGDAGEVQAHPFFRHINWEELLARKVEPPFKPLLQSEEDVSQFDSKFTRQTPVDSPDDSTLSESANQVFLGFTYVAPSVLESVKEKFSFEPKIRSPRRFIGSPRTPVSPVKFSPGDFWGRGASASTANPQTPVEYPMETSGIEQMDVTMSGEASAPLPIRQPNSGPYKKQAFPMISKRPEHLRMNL
Chain of Cyclin-dependent kinase 3 (Q00526 whole entry): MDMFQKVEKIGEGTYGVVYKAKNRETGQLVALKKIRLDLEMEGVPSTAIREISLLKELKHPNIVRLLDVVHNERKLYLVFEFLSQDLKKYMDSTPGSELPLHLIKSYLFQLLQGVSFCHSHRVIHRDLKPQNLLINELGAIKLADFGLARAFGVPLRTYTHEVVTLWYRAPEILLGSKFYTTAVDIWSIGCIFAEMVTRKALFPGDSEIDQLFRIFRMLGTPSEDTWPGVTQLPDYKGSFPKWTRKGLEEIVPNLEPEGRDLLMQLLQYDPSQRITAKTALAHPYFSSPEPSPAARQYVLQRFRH

Row | Kd [1] | Kd [2] | Kd [3] | Kd [4] | SMILES
1 | > 30 µM (inactive) | > 30 µM (inactive) | > 30 µM (inactive) | > 30 µM (inactive) | NC(=O)c1ccc(N(C(N)=O)c2c(F)cccc2F)nc1-c1ccc(F)cc1F [VX-702]
2 | 0.942 µM | > 30 µM (inactive) | > 30 µM (inactive) | > 30 µM (inactive) | Cc1cc(Nc2nc(N[C@@H](C)c3ncc(F)cn3)ncc2Cl)n[nH]1 [AZD-1480]
3 | > 30 µM (inactive) | > 30 µM (inactive) | > 30 µM (inactive) | > 30 µM (inactive) | COc1cc2ncnc(Nc3ccc(O)cc3)c2cc1OC [WHI-P131]
4 | > 30 µM (inactive) | > 30 µM (inactive) | > 30 µM (inactive) | > 30 µM (inactive) | CNC(=O)c1cc(COc2nnc(Nc3ccc(Cl)cc3)c3ccoc23)ccn1 [TELATINIB]
5 | > 30 µM (inactive) | – | > 30 µM (inactive) | > 30 µM (inactive) | Cn1c(=O)n(-c2ccc(C(C)(C)C#N)cc2)c2c3cc(-c4cnc5ccccc5c4)ccc3ncc21 [DACTOLISIB]
6 | – | – | > 30 µM (inactive) | – | COc1cc2c(Oc3ccc4[nH]c(C)cc4c3F)ncnc2cc1OCCCN1CCCC1 [CEDIRANIB]
7 | > 30 µM (inactive) | > 30 µM (inactive) | > 30 µM (inactive) | > 30 µM (inactive) | COc1cccc(Nc2ncnn3ccc(CN4CC[C@@H](N)[C@H](O)C4)c23)c1 [BMS-690514]
8 | > 30 µM (inactive) | > 30 µM (inactive) | > 30 µM (inactive) | > 30 µM (inactive) | O[C@H]1CC[C@H](Nc2ncc3nc(Nc4c(F)cc(F)cc4F)n([C@H]4CCOC4)c3n2)CC1 [TANZISERTIB]
9 | – | – | > 30 µM (inactive) | – | COc1cc2c(N3CCN(C(=O)Nc4ccc(OC(C)C)cc4)CC3)ncnc2cc1OCCCN1CCCCC1 [TANDUTINIB]
10 | – | – | > 30 µM (inactive) | – | CN(C)C/C=C/C(=O)Nc1cc2c(Nc3ccc(F)c(Cl)c3)ncnc2cc1O[C@H]1CCOC1 [AFATINIB]
11 | > 30 µM (inactive) | > 30 µM (inactive) | > 30 µM (inactive) | > 30 µM (inactive) | Cc1cc(-c2cc(OC(=O)c3ccccc3)ccc2Cl)cc2nnc(Nc3ccc(OCCN4CCCC4)cc3)nc12 [TG100-801]
12 | – | > 30 µM (inactive) | > 30 µM (inactive) | 1.72 µM (active) | CCN1CCN(Cc2ccc(Nc3ncc(F)c(-c4cc(F)c5nc(C)n(C(C)C)c5c4)n3)nc2)CC1 [ABEMACICLIB]
13 | > 30 µM (inactive) | > 30 µM (inactive) | > 30 µM (inactive) | > 30 µM (inactive) | FC(F)(F)c1ccc(CNc2ccc(Cc3c[nH]c4ncc(Cl)cc34)cn2)cn1 [PEXIDARTINIB]
14 | > 30 µM (inactive) | – | > 30 µM (inactive) | 2.29 µM (active) | O=c1[nH]c([C@@H]2CCCN2)nc2c1oc1ccc(Cl)cc12
15 | > 30 µM (inactive) | > 30 µM (inactive) | > 30 µM (inactive) | > 30 µM (inactive) | Cc1cc(C(=O)Nc2cc(Oc3ccc4nc(NC(=O)C5CC5)cn4n3)ccc2C)n(C)n1 [TAK-593]
16 | > 30 µM (inactive) | > 30 µM (inactive) | > 30 µM (inactive) | > 30 µM (inactive) | Cn1c(=O)c(F)c(Nc2ccc(I)cc2F)c2c(=O)n(C[C@@H](O)CO)cnc21 [TAK-733]
17 | > 30 µM (inactive) | > 30 µM (inactive) | > 30 µM (inactive) | > 30 µM (inactive) | C=CC(=O)Nc1cccc(Nc2nc(Nc3ccc(N4CCN(C(C)=O)CC4)cc3OC)ncc2C(F)(F)F)c1 [ROCILETINIB]
18 | – | – | > 30 µM (inactive) | – | Cn1cnc2c(F)c(Nc3ccc(Br)cc3Cl)c(C(=O)NOCCO)cc21 [SELUMETINIB]
19 | – | – | > 30 µM (inactive) | – | C[C@@]1(C(=O)Nc2ccc(F)nc2)CCCN1c1nc(Nc2cc(C3CC3)n[nH]2)c2cccn2n1 [BMS-754807]
20 | > 30 µM (inactive) | – | > 30 µM (inactive) | > 30 µM (inactive) | CCOc1ccn(-c2ccc(F)cc2)c(=O)c1C(=O)Nc1ccc(Oc2ccnc(N)c2Cl)c(F)c1 [BMS-777607]
21 | – | – | > 30 µM (inactive) | – | CC1(C)CNc2cc(NC(=O)c3cccnc3NCc3ccncc3)ccc21 [MOTESANIB]
22 | > 30 µM (inactive) | – | > 30 µM (inactive) | > 30 µM (inactive) | COc1cc2ncnc3c2cc1OCCCCCN(C)Cc1ccc(Br)cc1N3 [JNJ-26483327]

Row | SMILES | Kd [1] | Kd [2] | Kd [3] | Kd [4]
23 | Cc1c(NC(=O)OC[C@@H]2COCCN2)cn2ncnc(Nc3ccc4c(cnn4Cc4cccc(F)c4)c3)c12 [AC-480] | > 30 µM (inactive) | > 30 µM (inactive) | > 30 µM (inactive) | > 30 µM (inactive)
24 | Cn1cc(-c2[nH]c3cc(NC(=O)[C@H](N)C4CCCCC4)cc4c3c2C=NNC4=O)cn1 | > 30 µM (inactive) | 2.38 µM (active) | > 30 µM (inactive) | > 30 µM (inactive)
25 | CN(c1ncccc1CNc1nc(Nc2ccc3c(c2)CC(=O)N3)ncc1C(F)(F)F)S(C)(=O)=O [PF-00562271] | 3.43 µM (active) | – | > 30 µM (inactive) | 11.9 µM (active)
26 | C[C@]1(O)C[C@@H](c2nc(-c3ccc4ccc(-c5ccccc5)nc4c3)c3c(N)nccn32)C1 [LINSITINIB] | > 30 µM (inactive) | – | > 30 µM (inactive) | > 30 µM (inactive)
27 | NC[C@@](O)(c1ccc(Cl)cc1)c1ccc(-c2cn[nH]c2)cc1 [AT-13148] | > 30 µM (inactive) | > 30 µM (inactive) | > 30 µM (inactive) | > 30 µM (inactive)
28 | COc1cc(F)c(F)c(Nc2ccc(I)cc2F)c1NS(=O)(=O)C1(C[C@H](O)CO)CC1 [REFAMETINIB] | > 30 µM (inactive) | > 30 µM (inactive) | > 30 µM (inactive) | > 30 µM (inactive)
29 | CN1CCN(c2nc(C3=C(c4c[nH]c5ccccc45)C(=O)NC3=O)c3ccccc3n2)CC1 [SOTRASTAURIN] | > 30 µM (inactive) | > 30 µM (inactive) | > 30 µM (inactive) | > 30 µM (inactive)
30 | CC(C)CC(=O)Nc1[nH]nc2c1CN(C(=O)C1CCN(C)CC1)C2(C)C [PHA-793887] | 0.008 µM (active) | > 30 µM (inactive) | > 30 µM (inactive) | –
31 | CC1(COc2ccc3c(c2)ncn3-c2ccc3cccc(N4CCC(N)CC4)c3n2)COC1 [CRENOLANIB] | 1.07 µM (active) | > 30 µM (inactive) | > 30 µM (inactive) | > 30 µM (inactive)
32 | C=CCn1c(=O)c2cnc(Nc3ccc(N4CCN(C)CC4)cc3)nc2n1-c1cccc(C(C)(C)O)n1 [ADAVOSERTIB] | > 30 µM (inactive) | > 30 µM (inactive) | > 30 µM (inactive) | > 30 µM (inactive)
33 | CNC(=O)c1ccc(Nc2ncc(C(F)(F)F)c(NCc3nccnc3N(C)S(C)(=O)=O)n2)cc1 [DEFACTINIB] | > 30 µM (inactive) | > 30 µM (inactive) | > 30 µM (inactive) | 10.8 µM (active)
34 | CCc1nc(C(N)=O)c(Nc2ccc(N3CCC(N4CCN(C)CC4)CC3)c(OC)c2)nc1NC1CCOCC1 [GILTERITINIB] | > 30 µM (inactive) | > 30 µM (inactive) | > 30 µM (inactive) | > 30 µM (inactive)
35 | N#CCNC(=O)c1ccc(-c2ccnc(Nc3ccc(N4CCOCC4)cc3)n2)cc1 [MOMELOTINIB] | – | > 30 µM (inactive) | > 30 µM (inactive) | –
36 | O=S(=O)(c1cccc2cnccc12)N1CCCNCC1 [FASUDIL] | > 30 µM (inactive) | – | > 30 µM (inactive) | > 30 µM (inactive)
